Drawing on ChEMBL document CHEMBL3286278, “Antifungal and cytotoxic 2-acylcyclohexane-1,3-diones from Peperomia alata and P. trineura” (J Nat Prod, 2014), this text covers Activity and IC50 for nine compounds.

Test [1] deals with Cladosporium cladosporioides. Description: Antifungal activity against Cladosporium cladosporioides after 48 hrs. The class given is functional.
Test [2] concerns Cladosporium sphaerospermum. In words: Antifungal activity against Cladosporium sphaerospermum after 48 hrs. The class given is functional.
Test [3] is described as follows: Cytotoxicity against human NALM6 cells after 48 hrs by MTT assay. The note with it: NALM-6, 48 h. The class given is functional, cell-based.
The subject of a further test is K562. Description: Cytotoxicity against human K562 cells after 48 hrs by MTT assay. The class given is functional, cell-based. As to conditions: K562, 48 h.

For `CCCCC/C=C\CCCCCCCCC(=O)C1=C(O)CCCC1=O`, the Activity was 10 µg in test [1] and 25 µg in test [2].
Consider `O=C(CC/C=C/c1ccccc1)C1=C(O)CCCC1=O`, for which the Activity in test [1] and in test [2] was 0.25 µg throughout.
Regarding `O=C1CCCC(O)=C1C(=O)CCc1ccc2c(c1)OCO2`, the Activity in test [1] and in test [2] was 0.5 µg in each case.
As for NYSTATIN, the Activity in test [1] and in test [2] was 1 µg throughout.
Regarding `O=C(CCCCCCCCCCCCCCc1ccc2c(c1)OCO2)C1=C(O)CCCC1=O`, the Activity in test [1] and in test [2] was 5 µg throughout.
As to `O=C(CCCCCCCCCCCCCCCCc1ccc2c(c1)OCO2)C1=C(O)CCCC1=O`, the Activity in test [1] and in test [2] was 5 µg each time.
On to `O=C(CCCCCCCC/C=C/c1ccccc1)C1=C(O)CCCC1=O`, for which the figures for the Activity in test [1] and in test [2] were 5 µg and 25 µg, respectively.
The corresponding values for `Clc1ccc(COC(Cn2ccnc2)c2ccc(Cl)cc2Cl)c(Cl)c1` (stereo not given) [MICONAZOLE] are 1 µg and 1 µg.
As to `CCCCC/C=C\CCCCCCCCC(=O)C1=C(O)CC[C@@H](O)C1=O`, the IC50 was 14.3 µM in test [3] and 26 µM with K562. Moreover, the Activity in test [1] was found to be 1 µg; in test [2], 10 µg.
